{"source": "PubChem BioAssay (NCI)", "experiment_in_all_cases": "inhibition of tumour cell growth, NCI panel, 384-well format", "key": {"[1]": {"tested_on": "HOP-62 NSCLC"}, "[2]": {"tested_on": "OVCAR-5 ovarian"}, "[3]": {"tested_on": "EKVX NSCLC"}, "[4]": {"tested_on": "SK-OV-3 ovarian"}, "[5]": {"tested_on": "HL-60(TB) leukemia"}, "[6]": {"tested_on": "OVCAR-3 ovarian"}, "[7]": {"tested_on": "OVCAR-8 ovarian"}, "[8]": {"tested_on": "SF-268 CNS"}, "[9]": {"tested_on": "MDA-MB-435 melanoma"}, "[10]": {"tested_on": "HCT-15 colon"}, "[11]": {"tested_on": "NCI-H226 lung"}, "[12]": {"tested_on": "CCRF-CEM leukemia"}, "[13]": {"tested_on": "UACC-62 melanoma"}}, "note": "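Abbreviation: GI50, concentration required for 50% inhibition of growth. At the TGI there is no net growth.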", "data": [{"smiles": "COC1(C(=O)N2Cc3nc(Cl)nc(N[C@H](C)c4cc(N)cc(C(F)(F)F)c4)c3C2)CCOCC1", "values": [{"measurement": "GI50", "setting": "[1]", "result": 15.6, "unit": "µM"}, {"measurement": "TGI", "setting": "[1]", "result": 29.3, "unit": "µM"}, {"measurement": "GI50", "setting": "[2]", "result": 23.2, "unit": "µM"}, {"measurement": "TGI", "setting": "[2]", "result": 75, "unit": "µM"}, {"measurement": "GI50", "setting": "[3]", "result": 12.8, "unit": "µM"}, {"measurement": "TGI", "setting": "[3]", "result": 38.8, "unit": "µM"}, {"measurement": "GI50", "setting": "[4]", "result": 18.9, "unit": "µM"}, {"measurement": "TGI", "setting": "[4]", "result": 40.3, "unit": "µM"}, {"measurement": "GI50", "setting": "[5]", "result": 16.2, "unit": "µM"}, {"measurement": "TGI", "setting": "[5]", "result": 29.8, "unit": "µM"}, {"measurement": "GI50", "setting": "[6]", "result": 13.1, "unit": "µM"}, {"measurement": "TGI", "setting": "[6]", "result": 26.2, "unit": "µM"}, {"measurement": "GI50", "setting": "[7]", "result": 18.4, "unit": "µM"}, {"measurement": "TGI", "setting": "[7]", "result": 46.1, "unit": "µM"}, {"measurement": "GI50", "setting": "[8]", "result": 17.2, "unit": "µM"}, {"measurement": "TGI", "setting": "[8]", "result": 34.8, "unit": "µM"}, {"measurement": "GI50", "setting": "[9]", "result": 17.9, "unit": "µM"}, {"measurement": "TGI", "setting": "[9]", "result": 36.9, "unit": "µM"}, {"measurement": "GI50", "setting": "[10]", "result": 18.6, "unit": "µM"}, {"measurement": "TGI", "setting": "[10]", "result": 38.9, "unit": "µM"}, {"measurement": "GI50", "setting": "[11]", "result": 13.4, "unit": "µM"}, {"measurement": "TGI", "setting": "[11]", "result": 31, "unit": "µM"}, {"measurement": "GI50", "setting": "[12]", "result": 15.5, "unit": "µM"}, {"measurement": "TGI", "setting": "[12]", "result": 29.1, "unit": "µM"}, {"measurement": "GI50", "setting": "[13]", "result": 15.6, "unit": "µM"}, {"measurement": "TGI", "setting": "[13]", "result": 29.1, "unit": "µM"}]}]}
